Experimental data reported in publication PMC4122979, “The N-terminal portion of autoinhibitory element modulates human endothelial nitric-oxide synthase activity through coordinated controls of phosphorylation at Thr^495 and Ser^1177” (Bioscience Reports, 2014).

Columns and labels:
eNOS [1] = test: Inhibition of eNOS oxygenase activity (L-[^3H]citrulline formation) by CBD peptides; format: biochemical, human; settings: 10 μM peptide; for inhibition of L-citrulline formation: relative to rate without peptide, mean of triplicate experiments; for order of inhibitory potency to eNOS activity: inter-domain electron transfer (citrulline formation): same order stated for CaM binding affinity
Protocol: (§1) The expression and purification of eNOS from Sf21 cells was carried out essentially same as previously reported. The inhibition of eNOS oxygenase activity by unmodified or modified CBDs was tested at 37°C for 4 min by measuring L-[^3H]citrulline formation in a mixture containing 25 mM Tris, pH 7.5, 100 mM NaCl, 0.5 μM CaM, 0.2 mM EDTA, 0.3 mM CaCl2, 100 μM β-NADPH, 10 μM H4B, 20 μM L-arginine, 1 μCi of L-[^3H]arginine, 100 nM eNOS, and in the presence or absence of 10 μM of each peptide. Cytochrome c reduction was determined at room temperature (25°C) in a reaction mixture containing 25 mM Tris–HCl, pH 7.5, 100 mM NaCl, 10% glycerol, 50 μM cytochrome c, 0.5 μM CaM, 100 μM CaCl2 and 100 μM β-NADPH in the presence or absence of 10 μM of each peptide. The reaction was initiated by addition of 50 nM eNOS and monitored at 550 nm in a GE geneQuant100 spectrophotometer. Activity was determined using a ΔE550=21 mM^−1cm^−1. An assay in the absence of CaM was carried out to serve as baseline reference.
(§2) Figure 6 Evaluation of inhibitory potency of CBD variants on eNOS activity Modified or unmodified CBD peptides were assessed for their ability to inhibit (A) citrulline formation activity and (B) Cytochrome c reduction. CR denotes a complete reaction mixture; CR-CaM denotes omission of CaM from the complete reaction mixture; CR+T495 indicates the addition of 10 μM of unmodified CBD (T495) to the complete reaction mixture; CR+A495 denotes the addition of 10 μM of phosphonull CBD (A495) to the complete reaction mixture; CR+D495 indicates the addition of 10 μM of phosphomimetic CBD (D495) to the complete reaction mixture; CR+pT495 denotes the addition of 10 μM of phosphorylated CBD (pT495) to the complete reaction mixture. The complete reaction mixture for L-[^3H]citrulline formation contains 25 mM Tris, pH 7.5, 100 mM NaCl, 0.5 μM CaM, 0.2 mM EDTA, 0.3 mM CaCl2, 100 μM β-NADPH, 10 μM H4B, 20 μM L-arginine, 1 μCi of L-[^3H]arginine, 100 nM eNOS. The complete reaction mixture for cytochrome c reduction contains 25 mM Tris–HCl, pH 7.5, 100 mM NaCl, 10% glycerol, 50 μM cytochrome c, 0.5 μM CaM, 100 μM CaCl2 and 100 μM β-NADPH. The catalytic activity was normalized to give percentages relative to the reaction rate in the absence of each peptide. Each bar represents mean±S.D. of triplicate experiments. Under these conditions, the activities for eNOS bound to CaM were 12±2/min for citrulline formation, and 295±15/min for cytochrome c reduction. Data are presented as means±S.D.*denotes P<0.05, ** P<0.01, NS, not significant difference as compared with that in the absence of synthetic CBD peptides. Each experiment was performed in triplicate and repeated three times.

eNOS [2] = test: Inhibition of eNOS reductase activity (cytochrome c reduction) by CBD peptides; format: biochemical, human; settings: 10 μM peptide; for effect on cytochrome c reduction (electron transfer within reductase domain), in words / inhibition of cytochrome c reductase activity: 50 nM eNOS, 0.5 μM CaM, 100 μM CaCl2, 50 μM cytochrome c, 100 μM β-NADPH, pH 7.5, 25°C, 550 nm; for order of inhibitory potency to eNOS activity: intra-domain electron transfer (cytochrome c reduction): same order stated for CaM binding affinity; for inhibition of cytochrome c reductase activity: relative to rate without peptide, mean of triplicate experiments
Protocol: as §1, §2

human CaM = test: CaM mobility shift gel (CBD peptide binding to CaM); settings: 200 pmol CaM; for order of binding affinity for CBD variants to CaM: densitometric analysis of attenuation of free CaM bands (I/I0 versus peptide:CaM ratio), 100 μM CaCl2, pH 7.5, triplicate gels (n=4 in Figure 5 legend); for CaM-peptide complex formation: non-denaturing, non-reducing PAGE (18% gel), peptide 0–2000 pmol, 1 h, 20 mM Tris, pH 7.5, 100 μM CaCl2, Coomassie staining
Protocol: Human CaM was purified essentially as described previously. CaM (200 pmol) was incubated with each peptide at several molar ratios for 1 h in 10 μl of buffer containing 20 mM Tris, pH 7.5 with 100 μM CaCl2. The sample was subjected to non-denaturing, non-reducing PAGE (18% gel) at 30 mA under high Ca^2+ conditions (100 μM free Ca^2+ in all gel buffers). Binding of peptides to CaM was visualized by Coomassie Brilliant Blue R-250 staining. The relative amount of CaM on the gel at each peptide concentration (I) was determined by densitometry and normalized to CaM in the absence of peptide (I0). The data are plotted as the mean I/I0±S.D. (n=4) versus peptide:CaM ratio.
What needs to be explained is why a similar activation of eNOS is observed with little effect on phosphorylation of Thr^495 in mutant Δ605. Thus, it is difficult at this stage to conclude the precise roles of Thr^495 dephosphorylation in the activation of eNOS. Conflicting conclusions have also been drawn from earlier observations in the role of Thr^495 phosphorylation with eNOS activation. It has been reported that eNOS activity is increased by phosphorylation of Ser^1177 despite enhanced Thr^495 phosphorylation. […] To resolve this discrepancy, we synthesized peptides representing heNOS CBD (residues 491–510) with point mutations at Thr^495 site (Figure 5A) and determined the apparent affinity of the CBD variants to CaM. Each peptide with increasing concentrations (0–2000 pmol) was incubated with purified CaM at a fixed concentration (200 pmol) in the presence of 100 μM CaCl2. The mixtures were electrophoresed on non-reducing, non-denaturing gels. […] Peptide–CaM complexes migrate as higher molecular weight bands than free CaM in the presence of calcium. […] The extent of CaM-peptide interaction was assessed by densitometric analysis of attenuation of free CaM bands in the presence of increasing concentrations of each peptide.
Figure 5 Interaction of synthetic CBD peptides with calcium/CaM (A) Peptide CBD sequences (residues 491–510, based on heNOS) with unmodified T495 (T495), phosphonull A substitution (A495, red colour), phosphomimetic substitution (D495, blue colour) and phosphorylated T495 (pT495, brown colour) are indicated. (B) The synthetic CBD variants were incubated with CaM (200 pmol) by increasing peptide:CaM molar ratios in the presence of 100 μM CaCl2 before electrophoresis. The samples were analysed on 18% non-denaturing gels and visualized with Coomassie Brilliant Blue R-250. Representative Coomassie Brilliant Blue-stained gels of samples containing CaM and increasing molar ratios of T495, A495, D495 and pT495 are shown. The first lane in each gel contains CaM only, i.e., CBD/CaM ratio is 0. The rest CBD/CaM ratios were 0.1:1 (2nd lane), 0.2:1 (3rd lane), 0.4:1 (4th lane), 0.8:1 (5th lane), 1.6:1 (6th lane), 3.2:1 (7th lane), 6.4:1 (8th lane) and 12.8:1 (9th lane). CBD–CaM complexes and free CaM are denoted. (C) The relative amount of CaM on the gel at each peptide concentration (I) was determined by densitometry and normalized to CaM in the absence of peptide (I0). The data are plotted as the mean I/I0±S.D. (n=4) versus peptide:CaM ratio.

[3] = 100 nM eNOS, 0.5 μM CaM, 0.3 mM CaCl2, 20 μM L-arginine, pH 7.5, 37°C, 4 min

inhibition of L-citrulline formation (eNOS [1]; [3])	order of inhibitory potency to eNOS activity: inter-domain electron transfer (citrulline formation) (eNOS [1])	order of inhibitory potency to eNOS activity: intra-domain electron transfer (cytochrome c reduction) (eNOS [2])	order of binding affinity for CBD variants to CaM (human CaM)	CaM-peptide complex formation (human CaM)	inhibition of cytochrome c reductase activity (eNOS [2])	Substance	effect on cytochrome c reduction (electron transfer within reductase domain), in words (eNOS [2])	effect on eNOS oxygenase activity (citrulline formation), in words (eNOS [1]; [3])
20%	T495>A495>D495>pT495	T495>A495>D495>pT495	T495>A495>D495>pT495	also showed CaM-peptide binding	75%	TRKKD^495FKEVANAVKISASLM [D495, phosphomimetic CBD peptide, heNOS residues 491–510]	–	–
–	T495>A495>D495>pT495	T495>A495>D495>pT495	T495>A495>D495>pT495	nearly no detectable peptide-CaM complex	–	TRKKpT^495FKEVANAVKISASLM [pT495, phosphorylated CBD peptide, heNOS residues 491–510]	virtually no inhibition on electron transfer within reductase domain	did not interfere with eNOS oxygenase activity
70%	T495>A495>D495>pT495	T495>A495>D495>pT495	T495>A495>D495>pT495	also showed CaM-peptide binding	90%	TRKKA^495FKEVANAVKISASLM [A495, phospho-null CBD peptide, heNOS residues 491–510]	–	–

Substance	inhibition of L-citrulline formation (eNOS [1]; [3])	order of inhibitory potency to eNOS activity: inter-domain electron transfer (citrulline formation) (eNOS [1])	order of inhibitory potency to eNOS activity: intra-domain electron transfer (cytochrome c reduction) (eNOS [2])	order of binding affinity for CBD variants to CaM (human CaM)	CaM-peptide complex formation (human CaM)	inhibition of cytochrome c reductase activity (eNOS [2])	effect on cytochrome c reduction (electron transfer within reductase domain), in words (eNOS [2])	effect on eNOS oxygenase activity (citrulline formation), in words (eNOS [1]; [3])
TRKKT^495FKEVANAVKISASLM [T495, Unmodified CBD peptide, heNOS residues 491–510]	87%	T495>A495>D495>pT495	T495>A495>D495>pT495	T495>A495>D495>pT495	exhibited increases in CaM–peptide complex bands and reciprocal attenuation of free CaM bands	–	inhibits the activity completely	–
